Values of other authors in patent publication US11789016B2, “Methods, systems and kits for in-pen assays” (Berkeley Lights, Inc., priority 2017, dated 2023).
Like-named read-outs stand apart in the source and are kept apart here. One block for each substance: values may come before it.

Target: IgG
Conditions: for Kd: read-out: Affinity for IgG

Kd (Fc of hIgG): 75 nM
Substance: 5′-rGp-rGp-rAp-rGp-rGp-fUp-rGp-fCp-fUp-fCp-fCp-rGp-rAp-rAp-rAp-rGp-rGp-rAp-rAp-fCp-fUp-fCp-fCp-3′ [CPD 5]

Substance: CPD 1: Protein A-AF594, Pierce Recombinant Protein A (ThermoFisher Cat. # 77674)
Affinity for IgG (order of magnitude in words): nanomolar

Substance: DCAWHLGELVWCT [CPD 4, Asp Cys Ala Trp His Leu Gly Glu Leu Val Trp Cys Thr]
Kd (Fc): 100 nM
